Results taken from PubChem BioAssay AID1963443 (Molecular Pharmacology Branch, DTP, NCI, 2024).
Several values for one entry are separate records, joined by “and”; a condition that tells them apart may be missing. Equal values may be shown once.

System: MDA-MB-231 complex spheroids, growth inhibition
Assay: Anticancer human tumor MDA-MB-231 cell line growth inhibition [Asc];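 further: spheroids exposed to compounds for 7 days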
Details: for viability, T/C: stronger effect = lower value
Outline: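 Concentration series start at each agent's clinical Cmax, or at 10 microM when none is established, and drop in half-log steps; agents are applied alone or together to complex spheroids built with HUVEC and hMSC.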

[1] = curve of first compound, second compound 0.01 µM
[2] = curve of first compound, second compound 0.0316 µM
[3] = curve of first compound, second compound 0.1 µM
[4] = curve of first compound, second compound 0.316 µM
[5] = curve of first compound, second compound 1 µM
[6] = second compound 0.01 µM, first compound 0.0316 µM
[7] = second compound 0.01 µM, first compound 0.1 µM
[8] = second compound 0.01 µM, first compound 0.316 µM
[9] = second compound 0.01 µM, first compound 1 µM
[10] = second compound 0.0316 µM, first compound 0.0316 µM
[11] = second compound 0.0316 µM, first compound 0.1 µM
[12] = second compound 0.0316 µM, first compound 0.316 µM
[13] = second compound 0.0316 µM, first compound 1 µM
[14] = second compound 0.1 µM, first compound 0.0316 µM
[15] = second compound 0.1 µM, first compound 0.1 µM
[16] = second compound 0.1 µM, first compound 0.316 µM
[17] = second compound 0.1 µM, first compound 1 µM
[18] = second compound 0.316 µM, first compound 0.0316 µM
[19] = second compound 0.316 µM, first compound 0.1 µM
[20] = second compound 0.316 µM, first compound 0.316 µM
[21] = second compound 0.316 µM, first compound 1 µM
[22] = second compound 1 µM, first compound 0.0316 µM
[23] = second compound 1 µM, first compound 0.1 µM
[24] = second compound 1 µM, first compound 0.316 µM
[25] = second compound 1 µM, first compound 1 µM

Work on `NC1CCC(NC2CC2c2ccccc2)CC1` (configuration not stated) + CCN1C(C(=O)NC23CCC(C(=O)O)(CC2)CC3)C(c2cccc(Cl)c2F)C2(C(=O)Nc3cc(Cl)ccc32)C12CCCCC2 yielded an IC50 (curve of first compound, second compound 0.03 µM) greater than 100 nM, an IC50 (curve of first compound, second compound 0.0949 µM) greater than 100 nM and an IC50 (curve of first compound, second compound 0.3 µM) greater than 100 nM. It also gave an IC50 (curve of first compound, second compound 0.949 µM) greater than 100 nM, an IC50 (curve of first compound, second compound 3 µM) greater than 100 nM and a viability, T/C (second compound 0.03 µM, first compound 0.000316 µM) of 91.2%. The viability, T/C (second compound 0.03 µM, first compound 0.001 µM) was 94.5%, the viability, T/C (second compound 0.03 µM, first compound 0.00316 µM) was 93.4% and the viability, T/C (second compound 0.03 µM, first compound 0.01 µM) was 95.2%. For the same compound, the viability, T/C (second compound 0.03 µM, first compound 0.0316 µM) was 91.8%, the viability, T/C (second compound 0.03 µM, first compound 0.1 µM) was 96.2% and the viability, T/C (second compound 0.0949 µM, first compound 0.000316 µM) was 101%. For the same compound, the viability, T/C (second compound 0.0949 µM, first compound 0.001 µM) was 103%, the viability, T/C (second compound 0.0949 µM, first compound 0.00316 µM) was 101% and the viability, T/C (second compound 0.0949 µM, first compound 0.01 µM) was 101%. For the same compound, the viability, T/C (second compound 0.0949 µM, first compound 0.0316 µM) was 100%, the viability, T/C (second compound 0.0949 µM, first compound 0.1 µM) was 102% and the viability, T/C (second compound 0.3 µM, first compound 0.000316 µM) was 102%. The viability, T/C (second compound 0.3 µM, first compound 0.001 µM) was 104%, the viability, T/C (second compound 0.3 µM, first compound 0.00316 µM) was 101% and the viability, T/C (second compound 0.3 µM, first compound 0.01 µM) was 102%. It also gave a viability, T/C (second compound 0.3 µM, first compound 0.0316 µM) of 102%, a viability, T/C (second compound 0.3 µM, first compound 0.1 µM) of 105% and a viability, T/C (second compound 0.949 µM, first compound 0.000316 µM) of 105%. For the same compound, the viability, T/C (second compound 0.949 µM, first compound 0.001 µM) was 105%, the viability, T/C (second compound 0.949 µM, first compound 0.00316 µM) was 105% and the viability, T/C (second compound 0.949 µM, first compound 0.01 µM) was 105%. The viability, T/C (second compound 0.949 µM, first compound 0.0316 µM) was 104%, the viability, T/C (second compound 0.949 µM, first compound 0.1 µM) was 106% and the viability, T/C (second compound 3 µM, first compound 0.000316 µM) was 90%. For the same compound, the viability, T/C (second compound 3 µM, first compound 0.001 µM) was 91%, the viability, T/C (second compound 3 µM, first compound 0.00316 µM) was 89.8% and the viability, T/C (second compound 3 µM, first compound 0.01 µM) was 88.2%. It also gave a viability, T/C (second compound 3 µM, first compound 0.0316 µM) of 87.5% and a viability, T/C (second compound 3 µM, first compound 0.1 µM) of 89.2%.

In the case of `Cn1ncnc1[C@H]1c2n[nH]c(=O)c3cc(F)cc(c23)N[C@@H]1c1ccc(F)cc1`, the viability, T/C (compound 0.000316 µM) is reported as 101% and 114% and 108%, the viability, T/C (compound 0.001 µM) is reported as 100% and 110% and 86.8% and the viability, T/C (compound 0.00316 µM) is reported as 92.4% and 90.3% and 77.6%. For the same compound, the viability, T/C (compound 0.01 µM) was 91.5% and 85.7% and 87.9%, the viability, T/C (compound 0.0316 µM) was 89.1% and 103% and 89.5% and the viability, T/C (compound 0.1 µM) was 84.4% and 100% and 74.3%. For the same compound, the IC50 (curve of compound) was greater than 100 nM.

`COc1c(OCCCN2CCOCC2)ccc2c3n(c(=NC(=O)c4cnc(N)nc4)nc12)CCN3` + CNC(C)C(=O)NC1CN(S(=O)(=O)c2cccc(S(=O)(=O)N3CCC4CCC(C(=O)NC(c5ccccc5)c5ccccc5)N4C(=O)C(NC(=O)C(C)NC)C3)c2)CCC2CCC(C(=O)NC(c3ccccc3)c3ccccc3)N2C1=O was tested, and the IC50 [1] was less than 3.16 nM, the IC50 [2] was less than 3.16 nM and the IC50 [3] was less than 3.16 nM. The IC50 [4] was less than 3.16 nM, the IC50 [5] was less than 3.16 nM and the viability, T/C (second compound 0.01 µM, first compound 0.00316 µM) was 3.3%. The viability, T/C (second compound 0.01 µM, first compound 0.01 µM) was 4.73%, the viability, T/C [6] was 3.39% and the viability, T/C [7] was 3.64%. The viability, T/C [8] was 2.42%, the viability, T/C [9] was 3.12% and the viability, T/C (second compound 0.0316 µM, first compound 0.00316 µM) was 2.47%. The viability, T/C (second compound 0.0316 µM, first compound 0.01 µM) was 3.12%, the viability, T/C [10] was 1.48% and the viability, T/C [11] was 1.69%. For the same compound, the viability, T/C [12] was 1.21%, the viability, T/C [13] was 1.12% and the viability, T/C (second compound 0.1 µM, first compound 0.00316 µM) was 2.16%. For the same compound, the viability, T/C (second compound 0.1 µM, first compound 0.01 µM) was 2.68%, the viability, T/C [14] was 2.19% and the viability, T/C [15] was 1.47%. It also gave a viability, T/C [16] of 1.18%, a viability, T/C [17] of 0.78% and a viability, T/C (second compound 0.316 µM, first compound 0.00316 µM) of 1.32%. For the same compound, the viability, T/C (second compound 0.316 µM, first compound 0.01 µM) was 1.65%, the viability, T/C [18] was 1.85% and the viability, T/C [19] was 1.41%. It also gave a viability, T/C [20] of 0.21%, a viability, T/C [21] of 0.62% and a viability, T/C (second compound 1 µM, first compound 0.00316 µM) of 1.05%. For the same compound, the viability, T/C (second compound 1 µM, first compound 0.01 µM) was 1.1%, the viability, T/C [22] was 0.84% and the viability, T/C [23] was 0.98%. It also gave a viability, T/C [24] of 0.77% and a viability, T/C [25] of 0.29%.

Compound `C=CC(=O)N1CCN(c2nc(=O)n(-c3c(C)ccnc3C(C)C)c3nc(-c4c(O)cccc4F)c(F)cc23)C(C)C1` (configuration not stated) + CNC(C)C(=O)NC1CN(S(=O)(=O)c2cccc(S(=O)(=O)N3CCC4CCC(C(=O)NC(c5ccccc5)c5ccccc5)N4C(=O)C(NC(=O)C(C)NC)C3)c2)CCC2CCC(C(=O)NC(c3ccccc3)c3ccccc3)N2C1=O has an IC50 [1] of less than 31.6 nM, an IC50 [2] of less than 31.6 nM and an IC50 [3] of less than 31.6 nM. It also gave an IC50 [4] of less than 31.6 nM, an IC50 [5] of less than 31.6 nM and a viability, T/C [6] of 4.27%. It also gave a viability, T/C [7] of 4.47%, a viability, T/C [8] of 3.48% and a viability, T/C [9] of 4.14%. The viability, T/C (second compound 0.01 µM, first compound 3.16 µM) was 3.21%, the viability, T/C (second compound 0.01 µM, first compound 10 µM) was 2.6% and the viability, T/C [10] was 1.6%. The viability, T/C [11] was 1.97%, the viability, T/C [12] was 3.62% and the viability, T/C [13] was 3.15%. For the same compound, the viability, T/C (second compound 0.0316 µM, first compound 3.16 µM) was 2.97%, the viability, T/C (second compound 0.0316 µM, first compound 10 µM) was 3.77% and the viability, T/C [14] was 1.84%. For the same compound, the viability, T/C [15] was 1.71%, the viability, T/C [16] was 1.31% and the viability, T/C [17] was 0.87%. It also gave a viability, T/C (second compound 0.1 µM, first compound 3.16 µM) of 2.25%, a viability, T/C (second compound 0.1 µM, first compound 10 µM) of 1.71% and a viability, T/C [18] of 1.02%. For the same compound, the viability, T/C [19] was 1.06%, the viability, T/C [20] was 2.22% and the viability, T/C [21] was 1.43%. It also gave a viability, T/C (second compound 0.316 µM, first compound 3.16 µM) of 1.4%, a viability, T/C (second compound 0.316 µM, first compound 10 µM) of 2.33% and a viability, T/C [22] of 1.09%. For the same compound, the viability, T/C [23] was 1.13%, the viability, T/C [24] was 1.81% and the viability, T/C [25] was 1.73%. The viability, T/C (second compound 1 µM, first compound 3.16 µM) was 1.35% and the viability, T/C (second compound 1 µM, first compound 10 µM) was 3.82%.
